Measurements from patent US12115152B2, “Pan-RAF kinase inhibitor and use thereof” (HEFEI INSTITUTES OF PHYSICAL SCIENCE, CHINESE ACADEMY OF …, priority 2019, dated 2024).
“And” between values parts separate entries of the source, which are not always exact repeats. Equal entries are not always repeated. Where two headings read alike, the source gives them in different places.

Experiment: Pharmacokinetic parameters in rats
Type: in vivo, SD rats
Settings: rat
Method: In the example, SD rats (180-220 g, male) (purchased from Experimental Animal Center of Anhui Medical University, China) were used. The animals were kept in cages ventilated independently with 6 rats per cage. The feeding was performed at a temperature of 20˜26° C. and a humidity of 35-75%. The light condition was 12 hours of lighting/12 hours of darkness. The corncob bedding was refreshed once a week. The rats were fed with foods and drinking water on an ad libitum basis. The rats were marked with a number on the tails. During the experiment, the breeding and use of animals strictly follow the regulations of Association for Assessment and Accreditation of Laboratory Animal Care International.
Solutions of Compound 16 and Comparative Compound 1 were prepared as follows. 10 mg of the compound to be tested was precisely weighed into a sterile vial, and was dissolved with a small amount of DMSO, and then was made to a constant volume of 5 ml with 5% glucose solution, to give a gavage test solution at a concentration of 2 mg/mL. 0.5 ml of the above gavage test solution at a concentration of 2 mg/mL was precisely taken, and was made to constant volume of 5 ml with 4.5 ml of 5% glucose solution, to give an intravenous injection test solution at a concentration of 0.2 mg/mL. The solution was prepared immediately before being used in the experiment.
6 SD rats were randomly divided into two groups, and the synthesized compounds were administered by gavage and tail vein injection, respectively. About 0.3 mL of blood samples were collected from the retro-orbital venous plexus at 0 h before administration and at 5 min, 15 min, 30 min, 1 h, 1.5 h, 2 h, 4 h, 6 h, 9 h, 12 h, 24 h after administration for the gavage group; and at 0 h before administration and at 2 min, 5 min, 15 min, 30 min, 1 h, 2 h, 4 h, 6 h, 9 h, and 12 h after administration for the tail vein group. Each of the collected blood samples was put in a 1.5 mL centrifuge tube with heparin (Sigma, USA). The sample was centrifuged at 6000 rpm for 3 min to separate the plasma. 100 μL of plasma in the upper layer was placed into a new 1.5 mL centrifuge tube, and stored at −80° C. for determination. 10 mg of a standard for the compound to be tested was precisely weighed into a 10 mL volumetric flask, and was dissolved by adding methanol to make a constant volume and mixed uniformly, to give a 1 mg/mL stock solution. The stock solution was then diluted gradually with methanol to give a series of working solutions at concentrations of 0.01, 0.02, 0.05, 0.1, 0.2, 0.5, 1, 2, 5, 10, 20 μg/mL. The working solutions were placed in a refrigerator at 4° C. for later use. 11 centrifuge tubes were used. 10 μL of the above working solutions was respectively added to each of the centrifuge tubes, and then 90 μL of blank rat plasma was respectively added therein. The mixtures were mixed uniformly, so that the concentration of the compound in the rat plasma was 1, 2, 5, 10, 20, 50, 100, 200, 500, 1000, 2000 ng/mL. Then, 20 μL of a solution of caffeine as the internal standard (200 ng/mL) (National Institutes for Food and Drug Control, China) was added therein, and the resultant mixtures were vortexed for 10 s. Next, 400 μL of methanol was added. The resultant mixtures were vortexed for 10 min, and centrifuged at 16000 rpm for 5 min. Thereafter, 70 μL of the supernatant was placed into the inserted pipe of a sampling bottle. 5 μL of the sample was introduced for a LC-MS/MS analysis. A standard curve of the compound in the rat plasma was obtained by means of a linear regression performed by taking the ratio of the peak area of the sample to that of the internal standard As/Ais as the vertical ordinate, taking the concentration C (μg/mL) as the horizontal ordinate, and taking 1/C^2 was taken as a weighting coefficient.
To 100 μL of the rat plasma to be tested stored at −80° C., 20 μL of a caffeine solution (200 ng/mL) as the internal standard was added. The resultant mixture was vortexed for 10 s. […]

[1] = male, Sprague-Dawley, plasma, iv, 1 mg/kg, intravenous injection 1 mg/kg, average n=3
[2] = male, Sprague-Dawley, plasma, iv, 1 mg/kg, intravenous injection 1 mg/kg, individual rats #1-#3
[3] = intravenous injection 1 mg/kg, average n=3
[4] = intravenous injection 1 mg/kg, individual rats #1-#3, 1 mg/kg
[5] = oral administration (gavage) 10 mg/kg, average n=3
[6] = oral administration (gavage) 10 mg/kg, individual rats #1-#3, 10 mg/kg

Work on `Cc1ccc(NC(=O)c2cccc(C(F)(F)F)c2)cc1-n1cc(-c2cncc(N3CCOCC3)c2)cn1` [Example 16, N-(4-methyl-3-(4-(5-morpholinopyrid-3-yl)-1H-pyrazol-1-yl)phenyl)-3-(trifluoromethyl)benzamide] yielded an AUC(0-inf) (male, SD, plasma, po, 10 mg/kg, oral administration (gavage) 10 mg/kg, average n=3) of 11000 ng·h/mL, a Tmax (male, SD, plasma, po, 10 mg/kg, oral administration (gavage) 10 mg/kg, average n=3, read-out: Tmax) of 0.67 h and a half-life (male, SD, plasma, po, 10 mg/kg, oral administration (gavage) 10 mg/kg, average n=3, read-out: T½ (converted)) of 3.02 h. It also gave an AUC(0-inf) (male, SD, plasma, po, 10 mg/kg, oral administration (gavage) 10 mg/kg, individual rats #1-#3) of 13500 ng·h/mL, an AUC0-t (male, SD, plasma, po, 10 mg/kg, oral administration (gavage) 10 mg/kg, individual rats #1-#3, read-out: AUC0-t) of 13400 ng·h/mL and a Tmax (male, SD, plasma, po, 10 mg/kg, oral administration (gavage) 10 mg/kg, individual rats #1-#3, read-out: Tmax) of 0.5 h. For the same molecule, the half-life (male, SD, plasma, po, 10 mg/kg, oral administration (gavage) 10 mg/kg, individual rats #1-#3, read-out: T½ (converted)) was 3.19 h, the AUC(0-inf) [1] was 765 ng·h/mL and the clearance [1] was 21.9 mL/min/kg. It also gave an AUC0-t (male, Sprague-Dawley, plasma, iv, 1 mg/kg, intravenous injection 1 mg/kg, average n=3, read-out: AUC0-t) of 742 ng·h/mL, a C0 (male, Sprague-Dawley, plasma, iv, 1 mg/kg, intravenous injection 1 mg/kg, average n=3, read-out: C0) of 1120 ng/mL and a Cmax (male, Sprague-Dawley, plasma, iv, 1 mg/kg, intravenous injection 1 mg/kg, average n=3, read-out: Cmax) of 914 ng/mL. It also gave an MRT last (male, Sprague-Dawley, plasma, iv, 1 mg/kg, intravenous injection 1 mg/kg, average n=3, read-out: MRT0-t) of 1.89 h, an MRT inf (male, Sprague-Dawley, plasma, iv, 1 mg/kg, intravenous injection 1 mg/kg, average n=3, read-out: MRT0-∞) of 2.33 h and a Tmax (male, Sprague-Dawley, plasma, iv, 1 mg/kg, intravenous injection 1 mg/kg, average n=3, read-out: Tmax) of 0.033 h. For the same molecule, the half-life (male, Sprague-Dawley, plasma, iv, 1 mg/kg, intravenous injection 1 mg/kg, average n=3, read-out: T½ (converted)) was 3.01 h, the Vd (male, Sprague-Dawley, plasma, iv, 1 mg/kg, intravenous injection 1 mg/kg, average n=3, read-out: Vz) was 5.66 L/kg and the AUC(0-inf) [2] was 861 ng·h/mL. It also gave a clearance [2] of 19.4 mL/min/kg, an AUC0-t (male, Sprague-Dawley, plasma, iv, 1 mg/kg, intravenous injection 1 mg/kg, individual rats #1-#3, read-out: AUC0-t) of 822 ng·h/mL and a C0 (male, Sprague-Dawley, plasma, iv, 1 mg/kg, intravenous injection 1 mg/kg, individual rats #1-#3, read-out: C0) of 1310 ng/mL. The Cmax (male, Sprague-Dawley, plasma, iv, 1 mg/kg, intravenous injection 1 mg/kg, individual rats #1-#3, read-out: Cmax) was 1020 ng/mL, the MRT last (male, Sprague-Dawley, plasma, iv, 1 mg/kg, intravenous injection 1 mg/kg, individual rats #1-#3, read-out: MRT0-t) was 2.08 h and the MRT inf (male, Sprague-Dawley, plasma, iv, 1 mg/kg, intravenous injection 1 mg/kg, individual rats #1-#3, read-out: MRT0-∞) was 2.75 h. It also gave a Tmax (male, Sprague-Dawley, plasma, iv, 1 mg/kg, intravenous injection 1 mg/kg, individual rats #1-#3, read-out: Tmax) of 0.033 h, a half-life (male, Sprague-Dawley, plasma, iv, 1 mg/kg, intravenous injection 1 mg/kg, individual rats #1-#3, read-out: T½ (converted)) of 3.59 h and a Vd (male, Sprague-Dawley, plasma, iv, 1 mg/kg, intravenous injection 1 mg/kg, individual rats #1-#3, read-out: Vz) of 6.01 L/kg. It also gave a bioavailability (male, Sprague-Dawley, plasma, oral, 10 mg/kg, oral administration (gavage) 10 mg/kg vs intravenous 1 mg/kg, average n=3, read-out: F (oral bioavailability)) of 144%, an AUC0-t (male, Sprague-Dawley, plasma, po, 10 mg/kg, oral administration (gavage) 10 mg/kg, average n=3, read-out: AUC0-t) of 10900 ng·h/mL and a Cmax (male, Sprague-Dawley, plasma, po, 10 mg/kg, oral administration (gavage) 10 mg/kg, average n=3, read-out: Cmax) of 1480 ng/mL. The MRT last (male, Sprague-Dawley, plasma, po, 10 mg/kg, oral administration (gavage) 10 mg/kg, average n=3, read-out: MRT0-t) was 6.62 h, the MRT inf (male, Sprague-Dawley, plasma, po, 10 mg/kg, oral administration (gavage) 10 mg/kg, average n=3, read-out: MRT0-∞) was 6.81 h and the MRT last (male, Sprague-Dawley, plasma, po, 10 mg/kg, oral administration (gavage) 10 mg/kg, individual rats #1-#3, read-out: MRT0-t) was 5.99 h. For the same molecule, the MRT inf (male, Sprague-Dawley, plasma, po, 10 mg/kg, oral administration (gavage) 10 mg/kg, individual rats #1-#3, read-out: MRT0-∞) was 6.19 h, the AUMC0-t [3] was 1413 hr*hr*ng/ml and the “AUMC0-∞” value [3] was 1805 hr*hr*ng/ml. The AUC0-t [4] was 680 ng·h/mL and 723 ng·h/mL, the “AUC0-∞” value [4] was 694 ng·h/mL and 742 ng·h/mL and the AUMC0-t [4] was 1708 hr*hr*ng/ml and 1207 hr*hr*ng/ml and 1326 hr*hr*ng/ml. For the same molecule, the “AUMC0-∞” value [4] was 2368 hr*hr*ng/ml and 1418 hr*hr*ng/ml and 1630 hr*hr*ng/ml, the C0 [4] was 933 ng/mL and 1116 ng/mL and the Cl [4] was 24.03 mL/min/kg and 22.47 mL/min/kg. The Cmax [4] was 796 ng/mL and 925 ng/mL, the MRT0-t [4] was 1.77 h and 1.83 h and the “MRT0-∞” value [4] was 2.04 h and 2.20 h. The T½ [4] was 2.62 h and 2.84 h, the Vz [4] was 5.441 L/kg and 5.521 L/kg and the “F (oral bioavailability)” value (oral administration (gavage) 10 mg/kg vs intravenous 1 mg/kg, individual rats #1-#3) was 176.1% and 157.7% and 98.3%. For the same molecule, the AUMC0-t [5] was 70219 hr*hr*ng/ml, the “AUMC0-∞” value [5] was 72777 hr*hr*ng/ml and the Cl [5] was 16.1 mL/min/kg. For the same molecule, the Vz [5] was 4.204 L/kg, the AUC0-t [6] was 11999 ng·h/mL and 7435 ng·h/mL and the “AUC0-∞” value [6] was 12067 ng·h/mL and 7520 ng·h/mL. For the same molecule, the AUMC0-t [6] was 80004 hr*hr*ng/ml and 72172 hr*hr*ng/ml and 58480 hr*hr*ng/ml, the “AUMC0-∞” value [6] was 83364 hr*hr*ng/ml and 74076 hr*hr*ng/ml and 60891 hr*hr*ng/ml and the Cl [6] was 12.4 mL/min/kg and 13.8 mL/min/kg and 22.17 mL/min/kg. For the same molecule, the Cmax [6] was 2090 ng/mL and 1710 ng/mL and 645 ng/mL, the MRT0-t [6] was 6.01 h and 7.87 h and the “MRT0-∞” value [6] was 6.14 h and 8.10 h. For the same molecule, the Tmax [6] was 1 h, the T½ [6] was 2.86 h and 3.01 h and the Vz [6] was 3.418 L/kg and 3.42 L/kg and 5.773 L/kg.
